Measured values from US10624875B2, “Methods and compositions for treating schizophrenia” (The Johns Hopkins University, priority 2012, dated 2020).
Several values for one entry are separate records, joined by “and”; a condition that tells them apart may be missing. Equal entries are not always repeated.

Tests used:
[1] = test system: aged-impaired (AI) rats; experiment: eight-arm Radial Arm Maze (RAM) task with one-hour delay, spatial memory retention; type: in vivo, rat
Procedure: The effects of levetiracetam on the spatial memory retention of aged-impaired (AI) rats were assessed in a Radial Arm Maze (RAM) behavioral task using vehicle control and five different dosage levels of levetiracetam (1.25 mg/kg/day, 2.5 mg/kg/day, 5 mg/kg/day, 10 mg/kg/day and 20 mg/kg/day). RAM behavioral tasks were preformed on ten AI rats. All six treatment conditions were tested on all ten rats, as described above for the MWM test. The RAM apparatus used consisted of eight equidistantly-spaced arms. An elevated maze arm (7 cm width×75 cm length) projected from each facet of an octagonal center platform (30 cm diameter, 51.5 cm height). Clear side walls on the arms were 10 cm high and were angled at 65° to form a trough. A food well (4 cm diameter, 2 cm deep) was located at the distal end of each arm. Froot Loops™ (Kellogg Company) were used as rewards. Blocks constructed of Plexiglas™ (30 cm height×12 cm width) could be positioned to prevent entry to any arm. Numerous extra maze cues surrounding the apparatus were also provided. The AI rats were initially subjected to a pre-training test (Chappell et al. Neuropharmacology 37: 481-487, 1998). The pre-training test consisted of a habituation phase (4 days), a training phase on the standard win-shift task (18 days) and another training phase (14 days) in which a brief delay was imposed between presentation of a subset of arms designated by the experimenter (e.g., 5 arms available and 3 arms blocked) and completion of the eight-arm win-shift task (i.e., with all eight arms available). In the habituation phase, rats were familiarized to the maze for an 8-minute session on four consecutive days. In each of these sessions food rewards were scattered on the RAM, initially on the center platform and arms and then progressively confined to the arms. After this habituation phase, a standard training protocol was used, in which a food pellet was located at the end of each arm. Rats received one trial each day for 18 days. Each daily trial terminated when all eight food pellets had been obtained or when either 16 choices were made or 15 minutes had elapsed. After completion of this training phase, a second training phase was carried out in which the memory demand was increased by imposing a brief delay during the trial. At the beginning of each trial, three arms of the eight-arm maze were blocked. Rats were allowed to obtain food on the five arms to which access was permitted during this initial ‘information phase’ of the trial. Rats were then removed from the maze for 60 seconds, during which time the barriers on the maze were removed, thus allowing access to all eight arms. Rats were then placed back onto the center platform and allowed to obtain the remaining food rewards during this ‘retention test’ phase of the trial. The identity and configuration of the blocked arms varied across trials. The number of “errors” the AI rats made during the retention test phase was tracked. An error occurred in the trial if the rats entered an arm from which food had already been retrieved in the pre-delay component of the trial, or if it re-visited an arm in the post-delay session that had already been visited. After completion of the pre-training test, rats were subjected to trials with more extended delay intervals, i.e., a one-hour delay, between the information phase (presentation with some blocked arms) and the retention test (presentation of all arms). […]

[2] = test system: entorhinal cortex (EC); experiment: fMRI activity during explicit 3-alternative forced choice task, entorhinal cortex; type: in vivo, human; conditions: aMCI subjects, 125 mg twice a day for two weeks, versus placebo
Procedure: A within-subjects trial of 8 weeks duration, involving 17 amnestic MCI (aMCI) subjects and 17 age-matched controls with a low dose treatment of levetiracetam is conducted. During the course of the study, each aMCI subject receives both drug and placebo treatments separately in two periods of two weeks each, with the order of treatments among different aMCI subjects counterbalanced (see FIG. 7). Age-matched control subjects treated with placebo serve as a further control. Cognitive testing and fMRI imaging data are obtained from the subjects after each two week period of drug/placebo treatment. As described above, the drug treatment period is the two weeks preceding Visit 1 or 2 (with the two week period preceding the other Visit being the placebo phase). […] Imaging data are obtained through high-resolution methods developed in the Stark laboratory. Data are collected on a Phillips 3 Tesla scanner (Eindhoven, The Netherlands) equipped with an 8-channel SENSE (Sensitivity Encoding) head coil, located at the F.M. Kirby Research Center for Functional Brain Imaging at the Kennedy Krieger Institute (Baltimore, Md.). […] Group data are analyzed using a two-way Analysis of Variance (ANOVA) with trial types and group as fixed factors, and subject as a random factor nested within group. […]

[3] = drug on its own (levetiracetam i.p., valproate subcutaneous)

`CC[C@@H](C(N)=O)N1CCCC1=O` [levetiracetam, (2S)-2-(2-oxopyrrolidin-1-yl) butanamide] was tested, and the “performance in the radial maze task” value ([1]; 20 mg/kg) was “fails to improve the performance”, the “dose effective in reducing the number of errors” value [1, 3] was 5 to 10 mg/kg and the “dose not effective in reducing the number of errors” value [1, 3] was 1.25 mg/kg and 2.5 mg/kg. The “EC activity during memory judgments” value [2] was “increases EC activity”.
